Patent US12077503B2, “Substituted cyclic amides and their use as herbicides” (FMC CORPORATION, priority 2015, dated 2024)

Key:
Format in all cases: in vivo
[1] = system: velvetleaf (Abutilon theophrasti); experiment: Test G Pre-Emergence Protocol; conditions: Abutilon theophrasti, pre-emergence, 312 h, evaluated after 13 days; for pest or weed control at 15.625 g/ha: 15.625 g ai/ha; for pest or weed control at 15.625 g/ha / pest or weed control at 250 g/ha: read-out: Velvetleaf damage rating (100=total damage to plant; 0=no damage to plant); for pest or weed control at 62.5 g/ha: 62.5 g ai/ha, 100=total damage to plant, 0=no damage to plant, read-out: plant damage rating, Velvetleaf; for pest or weed control at 250 g/ha: 250 g ai/ha
Summary of the method: (§1)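 Seeds were sown in standard soil and kept one day in a glasshouse (24/16° C day/night, 14 h light, 65% humidity), then sprayed with compound in acetone/water (50:50) containing 0.5% Tween 20 at 15.625, 62.5 or 250 g/ha. Damage was scored after 13 days (0 = none, 100 = total).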

[2] = system: redroot pigweed (Amaranthus retroflexus); experiment: Test G Pre-Emergence Protocol; conditions: Amaranthus retroflexus, pre-emergence, 312 h, evaluated after 13 days; for pest or weed control at 15.625 g/ha: 15.625 g ai/ha; for pest or weed control at 15.625 g/ha / pest or weed control at 250 g/ha: read-out: Pigweed, Redroot damage rating (100=total damage to plant; 0=no damage to plant); for pest or weed control at 62.5 g/ha: 62.5 g ai/ha, 100=total damage to plant, 0=no damage to plant, read-out: plant damage rating, Pigweed, Redroot; for pest or weed control at 250 g/ha: 250 g ai/ha
Summary of the method: as §1

[3] = system: barnyardgrass (Echinochloa crus-galli); experiment: Test G Pre-Emergence Protocol; conditions: Echinochloa crus-galli, pre-emergence, 312 h, evaluated after 13 days; for pest or weed control at 15.625 g/ha: 15.625 g ai/ha, read-out: Barnyard grass damage rating (100=total damage to plant; 0=no damage to plant); for pest or weed control at 62.5 g/ha: 62.5 g ai/ha, 100=total damage to plant, 0=no damage to plant, read-out: plant damage rating, Barnyardgrass; for pest or weed control at 250 g/ha: 250 g ai/ha, read-out: Barnyardgrass damage rating (100=total damage to plant; 0=no damage to plant)
Summary of the method: as §1

[4] = system: corn (Zea mays); experiment: Test G Pre-Emergence Protocol; conditions: Zea mays, pre-emergence, 312 h, evaluated after 13 days; for plant injury at 15.625 g/ha: 15.625 g ai/ha; for plant injury at 15.625 g/ha / plant injury at 250 g/ha: read-out: Corn damage rating (100=total damage to plant; 0=no damage to plant); for plant injury at 62.5 g/ha: 62.5 g ai/ha, 100=total damage to plant, 0=no damage to plant, read-out: plant damage rating, Corn; for plant injury at 250 g/ha: 250 g ai/ha
Summary of the method: as §1

[5] = system: ivy-leaved morning glory (Ipomoea hederacea); experiment: Test G Pre-Emergence Protocol; conditions: Ipomoea, pre-emergence, 312 h, evaluated after 13 days; for pest or weed control at 15.625 g/ha: 15.625 g ai/ha, read-out: Morning-glory, Ivy-leaved damage rating (100=total damage to plant; 0=no damage to plant); for pest or weed control at 62.5 g/ha: 62.5 g ai/ha, 100=total damage to plant, 0=no damage to plant, read-out: plant damage rating, Morningglory, Ivy-leaved; for pest or weed control at 250 g/ha: 250 g ai/ha, read-out: Morningglory, Ivy-leaved damage rating (100=total damage to plant; 0=no damage to plant)
Summary of the method: as §1

[6] = system: giant foxtail (Setaria faberi); experiment: Test G Pre-Emergence Protocol; conditions: Setaria faberi, pre-emergence, 312 h, evaluated after 13 days; for pest or weed control at 15.625 g/ha: 15.625 g ai/ha; for pest or weed control at 15.625 g/ha / pest or weed control at 250 g/ha: read-out: Foxtail, Giant damage rating (100=total damage to plant; 0=no damage to plant); for pest or weed control at 62.5 g/ha: 62.5 g ai/ha, 100=total damage to plant, 0=no damage to plant, read-out: plant damage rating, Foxtail, Giant; for pest or weed control at 250 g/ha: 250 g ai/ha
Summary of the method: as §1

[7] = system: velvetleaf (Abutilon theophrasti); experiment: Test G Post-Emergence Protocol; conditions: Abutilon theophrasti, post-emergence, 312 h; for pest or weed control at 15.625 g/ha: 15.625 g ai/ha, evaluated after 13 days (100=total damage to plant; 0=no damage to plant), read-out: Velvetleaf damage rating; for pest or weed control at 62.5 g/ha: 62.5 g ai/ha, read-out: Velvetleaf damage rating (100=total damage to plant; 0=no damage to plant); for pest or weed control at 62.5 g/ha / pest or weed control at 250 g/ha: evaluated after 13 days; for pest or weed control at 250 g/ha: 250 g ai/ha, read-out: damage to plant, Velvetleaf (100=total damage to plant; 0=no damage to plant)
Description: (§2) Seeds of corn (Zea mays), giant foxtail (Setaria faberi), barnyardgrass (Echinochloa crus-galli), ivy-leaved morning glory (Ipomoea hederacea), redroot pigweed (Amaranthus retroflexus) and velvetleaf (Abutilon theophrasti) were sown in standard soil in pots. After cultivation for 8 days under controlled conditions in a glasshouse (at 24/16° C., day/night; 14 hours light; 65% humidity), the plants were sprayed with an aqueous spray solution derived from the formulation of the technical active ingredient in acetone/water (50:50) solution containing 0.5% Tween 20 (polyoxyethylene sorbitan monolaurate, CAS RN 9005-64-5) to give a final dose of 15.625, 62.5 or 250 g/ha of test compound.
(§3) The test plants were then grown on under controlled conditions in a glasshouse (at 24/16° C., day/night; 14 hours light; 65% humidity) and watered twice daily. After 13 days the test was evaluated (100=total damage to plant; 0=no damage to plant). A dash (-) means no test result.

[8] = system: redroot pigweed (Amaranthus retroflexus); experiment: Test G Post-Emergence Protocol; conditions: Amaranthus retroflexus, post-emergence, 312 h; for pest or weed control at 15.625 g/ha: 15.625 g ai/ha, evaluated after 13 days (100=total damage to plant; 0=no damage to plant), read-out: Pigweed, Redroot damage rating; for pest or weed control at 62.5 g/ha: 62.5 g ai/ha, read-out: Pigweed, Redroot damage rating (100=total damage to plant; 0=no damage to plant); for pest or weed control at 62.5 g/ha / pest or weed control at 250 g/ha: evaluated after 13 days; for pest or weed control at 250 g/ha: 250 g ai/ha, read-out: damage to plant, Pigweed, Redroot (100=total damage to plant; 0=no damage to plant)
Description: as §2, §3

[9] = system: barnyardgrass (Echinochloa crus-galli); experiment: Test G Post-Emergence Protocol; conditions: Echinochloa crus-galli, post-emergence, 312 h; for pest or weed control at 15.625 g/ha: 15.625 g ai/ha, evaluated after 13 days (100=total damage to plant; 0=no damage to plant), read-out: Barnyardgrass damage rating; for pest or weed control at 62.5 g/ha: 62.5 g ai/ha, read-out: Barnyardgrass damage rating (100=total damage to plant; 0=no damage to plant); for pest or weed control at 62.5 g/ha / pest or weed control at 250 g/ha: evaluated after 13 days; for pest or weed control at 250 g/ha: 250 g ai/ha, read-out: damage to plant, Barnyardgrass (100=total damage to plant; 0=no damage to plant)
Description: as §2, §3

[10] = system: corn (Zea mays); experiment: Test G Post-Emergence Protocol; conditions: Zea mays, post-emergence, 312 h; for plant injury at 15.625 g/ha: 15.625 g ai/ha, evaluated after 13 days (100=total damage to plant; 0=no damage to plant), read-out: Corn damage rating; for plant injury at 62.5 g/ha: 62.5 g ai/ha, read-out: Corn damage rating (100=total damage to plant; 0=no damage to plant); for plant injury at 62.5 g/ha / plant injury at 250 g/ha: evaluated after 13 days; for plant injury at 250 g/ha: 250 g ai/ha, read-out: damage to plant, Corn (100=total damage to plant; 0=no damage to plant)
Description: as §2, §3

[11] = system: ivy-leaved morning glory (Ipomoea hederacea); experiment: Test G Post-Emergence Protocol; conditions: Ipomoea, post-emergence, 312 h; for pest or weed control at 15.625 g/ha: 15.625 g ai/ha, evaluated after 13 days (100=total damage to plant; 0=no damage to plant), read-out: Morningglory, Ivy-leaved damage rating; for pest or weed control at 62.5 g/ha: 62.5 g ai/ha, read-out: Morningglory, Ivy-leaved damage rating (100=total damage to plant; 0=no damage to plant); for pest or weed control at 62.5 g/ha / pest or weed control at 250 g/ha: evaluated after 13 days; for pest or weed control at 250 g/ha: 250 g ai/ha, read-out: damage to plant, Morningglory, Ivy-leaved (100=total damage to plant; 0=no damage to plant)
Description: as §2, §3

[12] = system: giant foxtail (Setaria faberi); experiment: Test G Post-Emergence Protocol; conditions: Setaria faberi, post-emergence, 312 h; for pest or weed control at 15.625 g/ha: 15.625 g ai/ha, evaluated after 13 days (100=total damage to plant; 0=no damage to plant), read-out: Foxtail, Giant damage rating; for pest or weed control at 62.5 g/ha: 62.5 g ai/ha, read-out: Foxtail, Giant damage rating (100=total damage to plant; 0=no damage to plant); for pest or weed control at 62.5 g/ha / pest or weed control at 250 g/ha: evaluated after 13 days; for pest or weed control at 250 g/ha: 250 g ai/ha, read-out: damage to plant, Foxtail, Giant (100=total damage to plant; 0=no damage to plant)
Description: as §2, §3

| SMILES | pest or weed control at 15.625 g/ha [1] [%] | pest or weed control at 62.5 g/ha [1] [%] | pest or weed control at 250 g/ha [1] [%] | pest or weed control at 15.625 g/ha [2] [%] | pest or weed control at 62.5 g/ha [2] [%] | pest or weed control at 250 g/ha [2] [%] | pest or weed control at 15.625 g/ha [3] [%] | pest or weed control at 62.5 g/ha [3] [%] | pest or weed control at 250 g/ha [3] [%] | plant injury at 15.625 g/ha [4] [%] | plant injury at 62.5 g/ha [4] [%] | plant injury at 250 g/ha [4] [%] | pest or weed control at 15.625 g/ha [5] [%] | pest or weed control at 62.5 g/ha [5] [%] | pest or weed control at 250 g/ha [5] [%] | pest or weed control at 15.625 g/ha [6] [%] | pest or weed control at 62.5 g/ha [6] [%] | pest or weed control at 250 g/ha [6] [%] | pest or weed control at 15.625 g/ha [7] [%] | pest or weed control at 62.5 g/ha [7] [%] | other results |
| --- | --- | --- | --- | --- | --- | --- | --- | --- | --- | --- | --- | --- | --- | --- | --- | --- | --- | --- | --- | --- | --- |
| CN1C[C@@H](c2ccc(C(F)(F)F)cc2)[C@H](C(=O)Nc2ccncc2Cl)C1=O (racemic) [Compound 1608] | 0 | 0 | 0 | 0 | 10 | 20 | 0 | 0 | 0 | 0 | 0 | 0 | 0 | 0 | 0 | 0 | 0 | 0 | 0 | 0 | pest or weed control at 250 g/ha [7]: 0%; pest or weed control at 15.625 g/ha [8]: 0%; pest or weed control at 62.5 g/ha [8]: 10%; pest or weed control at 250 g/ha [8]: 20%; pest or weed control at 15.625 g/ha [9]: 0%; pest or weed control at 62.5 g/ha [9]: 10%; pest or weed control at 250 g/ha [9]: 10%; plant injury at 15.625 g/ha [10]: 0%; plant injury at 62.5 g/ha [10]: 10%; plant injury at 250 g/ha [10]: 20%; pest or weed control at 15.625 g/ha [11]: 40%; pest or weed control at 62.5 g/ha [11]: 30%; pest or weed control at 250 g/ha [11]: 40%; pest or weed control at 15.625 g/ha [12]: 0%; pest or weed control at 62.5 g/ha [12]: 10%; pest or weed control at 250 g/ha [12]: 60% |
| COc1cc([C@H]2CN(C)C(=O)[C@@H]2C(=O)Nc2ccccc2F)ccc1Cl (racemic) [Compound 1421] | 0 | 0 | 0 | 0 | 0 | 0 | 10 | 60 | 80 | 0 | 0 | 10 | 0 | 0 | 0 | 70 | 80 | 90 | 10 | 0 | pest or weed control at 250 g/ha [7]: 0%; pest or weed control at 15.625 g/ha [8]: 0%; pest or weed control at 62.5 g/ha [8]: 0%; pest or weed control at 250 g/ha [8]: 0%; pest or weed control at 15.625 g/ha [9]: 0%; pest or weed control at 62.5 g/ha [9]: 20%; pest or weed control at 250 g/ha [9]: 20%; plant injury at 15.625 g/ha [10]: 10%; plant injury at 62.5 g/ha [10]: 10%; plant injury at 250 g/ha [10]: 10%; pest or weed control at 15.625 g/ha [11]: 10%; pest or weed control at 62.5 g/ha [11]: 0%; pest or weed control at 250 g/ha [11]: 0%; pest or weed control at 15.625 g/ha [12]: 20%; pest or weed control at 62.5 g/ha [12]: 40%; pest or weed control at 250 g/ha [12]: 50% |
